Test results reported in patent US20230049572A1, “FORMULATION, COMPOSITION OR FOODSTUFF ADDITIVES FOR THE MODIFICATION OF GLYCEMIC RESPONSE METHODS OF MANUFACTURING AND USING THE SAME” (HOOW FOODS PTE. LTD., priority 2019, published 2023).
Where two headings read alike, the source gives them in different places.

What was measured:
[1] = per dose / per meal; cited from earlier work
[2] = biological target: T1, bakers yeast a-glucosidase (Saccharomyces cerevisiae, UniProt P53341); experiment: In vitro flavonoid inhibition of alpha-glucosidase (pNPG); type: biochemical
T1 construct: purchased Sigma-Aldrich
T1 sequence (P53341 whole entry): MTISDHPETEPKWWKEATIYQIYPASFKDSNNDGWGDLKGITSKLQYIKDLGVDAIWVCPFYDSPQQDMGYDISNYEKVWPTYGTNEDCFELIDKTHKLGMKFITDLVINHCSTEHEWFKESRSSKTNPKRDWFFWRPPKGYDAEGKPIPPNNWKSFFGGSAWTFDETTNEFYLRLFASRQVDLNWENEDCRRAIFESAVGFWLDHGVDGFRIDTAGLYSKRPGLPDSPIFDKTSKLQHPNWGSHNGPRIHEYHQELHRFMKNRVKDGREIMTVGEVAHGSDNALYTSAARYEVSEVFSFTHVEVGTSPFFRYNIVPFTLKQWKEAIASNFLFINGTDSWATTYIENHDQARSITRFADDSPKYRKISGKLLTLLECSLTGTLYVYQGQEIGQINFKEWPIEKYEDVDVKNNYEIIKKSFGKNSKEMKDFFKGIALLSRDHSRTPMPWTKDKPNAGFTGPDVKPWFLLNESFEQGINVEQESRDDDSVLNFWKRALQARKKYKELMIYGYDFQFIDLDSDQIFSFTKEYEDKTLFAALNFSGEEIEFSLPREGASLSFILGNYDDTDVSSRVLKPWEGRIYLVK
Protocol: The alpha-glucosidase inhibition was determined using purified alpha-glucosidase from yeast. An alpha-glucosidase reaction mixture contained 2.9 mM p-nitrophenyl-α-d-glucopyranoside (pNPG) (Sigma-Aldrich), 0.25 ml of flavonoid in DMSO and 0.6 U/ml of bakers yeast a-glucosidase (Sigma-Aldrich) in sodium phosphate buffer, pH 6.9. […] The reaction mixtures were incubated at 25° C. for 5 min, after which the reaction was stopped by boiling for 2 min. Absorbance of the resulting p-nitrophenol (pNP) were spectrophotometry determined at 405 nm and was considered directly proportional to the activity of the enzyme. Glucosidase activity inhibition was determined as percentage of control as follows:
In order to eliminate background readings, the absorbance of the flavenoid without substrate and enzyme was subtracted from absorbance of the flavonoid and substrate mixture as follows: Corrected A405 test samples=A405 flavonoid and substrate—A405 flavonoid alone (background).
The activity in controls (with a-glucosidase but without inhibitor) was considered to be 100%. […] Different flavonoids were compared on the basis of their ICso values estimated from the dose response curves.

[3] = test system: alpha amylase; experiment: Inhibition of alpha amylase (similar studies); type: biochemical
[4] = pNPG 2.9 mM, pH 6.9, 25° C., 5 min, read-out: IC50, inhibition of yeast alpha-glucosidase

Compound | IC50 [2] | inhibition of amylase (in words) [3] | enzyme inhibition (in words) [2] | other results
OC[C@H]1NC[C@H](O)[C@@H](O)[C@@H]1O [1-DNJ, 1-deoxynojirimycin] | – | – | – | upper efficacy limit / saturation dose above which no further reduction in glycemic response is obtained [1]: 250 mg
O=c1cc(-c2ccc(O)cc2)oc2cc(O)cc(O)c12 [Apigenin] | 90 µM | – | – | –
O=c1cc(-c2ccccc2)oc2cc(O)c(O)c(O)c12 [Baicalein] | 58 µM | – | – | –
O=c1cc(-c2ccccc2)oc2cc(O)cc(O)c12 [Chrysin] | – | – | – | inhibition at 200 µM ([2]; read-out: inhibition of yeast alpha-glucosidase at fixed concentration): < 20%
O=C1c2c(O)cc(O)cc2O[C@H](c2cc(O)c(O)c(O)c2)[C@H]1O [Dihydromyricetin, (2R,3R)-3,5,7-Trihydroxy-2-(3,4,5-trihydroxyphenyl)-2,3-dihydrochromen-4-one] | 4 µM | effective at inhibiting amylase | powerful enzyme inhibitors | –
O=c1cc(-c2ccc(O)c(O)c2)oc2cc(O)cc(O)c12 [Luteolin] | – | – | – | IC50 [2, 4]: 35 µM
O=c1c(O)c(-c2cc(O)c(O)c(O)c2)oc2cc(O)cc(O)c12 [Myricetin, 3,5,7-Trihydroxy-2-(3,4 trihydroxyphenyl)-4-chromenone] | 3.6 µM | effective at inhibiting amylase | powerful enzyme inhibitors | –
O=C(CCc1ccc(O)cc1)c1c(O)cc(O)cc1O [Phloretin] | – | – | – | IC50 [2, 4]: 96 µM
O=c1c(O)c(-c2ccc(O)c(O)c2)oc2cc(O)cc(O)c12 [Quercetin, 2-(3,4-dihydroxyphenyl)-3,5,7-trihydroxy-4H-chromen-4-one] | – | effective at inhibiting amylase | powerful enzyme inhibitors | –
